Experimental data: article PMC4929710, “Specificity and mechanism of action of alpha-helical membrane-active peptides interacting with model and biological membranes by single-molecule force spectroscopy” (Scientific Reports, 2016)
Like-named read-outs stand apart in the source and are kept apart here.

Legend:
[1] = test system: 3T3-L1 cells; format: cell-based, mouse; conditions: 24 h
Procedure: (§1) The MTT cell proliferation assay was used to investigate the anticancer activity and cytotoxicity of MAPs against cancer cell lines (HeLa, A549, SGC-7901, and B16) and normal cells (3T3-L1), respectively. Cells (5 × 10^3) were seeded in 96-well plates and incubated overnight. The peptide samples were then added to cells with final concentrations ranging from 1 μM to 125 μM. After 24 h, 20 μL of 5 mg/mL MTT solution in PBS was added to the cells and treated for 4 h at 37 °C. The formazan crystals were dissolved by 150 μL of dimethyl sulfoxide (DMSO). Finally, the absorbance was determined at 492 nm. The results were expressed as IC50, representing the concentration at which cell viability was reduced by 50%. All assays were repeated in triplicate.

[2] = test system: B16 cells; format: cell-based, mouse; conditions: 24 h
Procedure: as §1

[3] = test system: A. laidlawii cells; test: Single-molecule force spectroscopy (AFM); format: binding, Acholeplasma laidlawii; conditions: RMS ± SD; N-terminal Cys peptide on AFM tip via PEG linker
Description: (§2) Based on the above results, five selected peptides of V13L, A12L/A20L, V13K, V13E, and L6A/L17A, with different hydrophobicity and charges were used to examine the interaction probabilities and forces between peptides and membranes, both on the lipid model membranes and on the biological membranes by SMFS based on AFM, respectively. A cysteine residue was covalently introduced to the N-terminus of peptides and provided a free sulfhydryl group to modify the tips of the AFM. A PEG linker was used since each heterobifunctional PEG–NHS linker (approximately 20 nm) can only covalently connect with a single peptide molecule, which guarantees a single-molecule interaction between MAPs and biological membranes in real time[19]. If an AFM tip was functionalized with two or more peptides, where several peaks were recorded. In the reports, data with two peaks were not collected and calculated. For one force–distance cycle, one peptide-functionalized AFM tip approached the model and biological membranes right on the top, and the subsequent tip was withdrawn from the cell membranes to retrace the process. […] In addition, blocking experiment was used to test the specificity of these force events. As the electrostatic attraction is one important reason for peptides approaching model membranes and biological membranes, the Tris-HCl buffer including plenty amino groups[20] was injected into the working chamber and inhibits the interactions between MAPs and model membranes/biological membranes. […] The unbinding forces of V13L against different model membranes and biological membranes with the loading rate of 1 × 10^5 pN s^−1 are shown in Fig. 3c,f–h,j–l.
(§3) The AFM tip was first washed with concentrated sulfuric acid and hydrogen peroxide (3:1, v:v). The tip was dried using ozone (O3) for 15 min and dried overnight in a dryer. The tip was then modified with APTES under an argon atmosphere and the peptide connected with a PEG–NHS linker. Finally, the AFM tip linked with the peptide was washed three times in PBS and kept at 4 °C. A 500-μL LUV suspension was deposited on Lys coated glass and the LUVs were absorbed on the surface for 1 h at 65 °C [9][29]. A. laidlawii was deposited on poly-L-lysine coated glass and absorbed for 1 h at 37 °C [30]. The 3T3-L1 and HeLa cells were cultured on glass slides in Dulbecco’s modified Eagle’s medium (DMEM). Before performing force spectroscopy experiments, the cells were washed with fresh DMEM three times to remove the cell metabolites. Isolation of chicken erythrocytes was carried out at room temperature. Then the erythrocytes were washed three times in 2 mL PBS buffer by centrifuge (1,000 rpm) and resuspended in PBS buffer. 200 μL erythrocyte suspension were deposited onto poly-L-lysine coated glass for 20 min[10]. […]

[4] = test system: 3T3-L1 cells; test: Single-molecule force spectroscopy (AFM); format: binding, mouse; conditions: RMS ± SD; N-terminal Cys peptide on AFM tip via PEG linker
Description: as §2, §3

[5] = test system: chicken erythrocyte membranes; test: Single-molecule force spectroscopy (AFM); format: binding; conditions: for Unbinding force Chicken erythrocyte: RMS ± SD, N-terminal Cys peptide on AFM tip via PEG linker
Description: as §2
(§4) The AFM tip was first washed with concentrated sulfuric acid and hydrogen peroxide (3:1, v:v). The tip was dried using ozone (O3) for 15 min and dried overnight in a dryer. The tip was then modified with APTES under an argon atmosphere and the peptide connected with a PEG–NHS linker. Finally, the AFM tip linked with the peptide was washed three times in PBS and kept at 4 °C. A 500-μL LUV suspension was deposited on Lys coated glass and the LUVs were absorbed on the surface for 1 h at 65 °C [9][29]. A. laidlawii was deposited on poly-L-lysine coated glass and absorbed for 1 h at 37 °C [30]. The 3T3-L1 and HeLa cells were cultured on glass slides in Dulbecco’s modified Eagle’s medium (DMEM). Before performing force spectroscopy experiments, the cells were washed with fresh DMEM three times to remove the cell metabolites. Isolation of chicken erythrocytes was carried out at room temperature. Then the erythrocytes were washed three times in 2 mL PBS buffer by centrifuge (1,000 rpm) and resuspended in PBS buffer. 200 μL erythrocyte suspension were deposited onto poly-L-lysine coated glass for 20 min[10]. The force measurements of MAPs with LUVs mimicking membranes and living cells were performed using the AFM5500 (Agilent Technologies, Chandler, AZ, USA)[19].

[6] = test system: PC/Chol (8:1 w/w) LUVs; test: Single-molecule force spectroscopy (AFM); format: binding; conditions: RMS ± SD; N-terminal Cys peptide on AFM tip via PEG linker; normal eukaryotic model membrane
Description: as §2
Lipids using the freeze-thaw method as described previously, followed by extrusion through […] double-stacked nuclepore filters using an Mini-Extruder (Avanti Polar Lipids, Inc.)[11][27].
as §3, with “temperature.” for “temperature. Then the erythrocytes were washed three times in 2 mL PBS buffer by centrifuge (1,000 rpm) and resuspended in PBS buffer. 200 μL erythrocyte suspension were deposited onto poly-L-lysine coated glass for 20 min[10].”

[7] = test system: PC/PG (7:3 w/w) LUVs; test: Single-molecule force spectroscopy (AFM); format: binding; conditions: RMS ± SD; N-terminal Cys peptide on AFM tip via PEG linker; prokaryotic model membrane
Description: as §2
(§5) In accordance with previously described methods, LUVs were prepared with PC/PG (7:3 w/w), PC/Chol (8:1 w/w), and PC/SM/PE/PS/Chol (4.35:4.35:1:0.3:1 w/w) to mimic prokaryotic cell, […], membranes, respectively. Lipids using the freeze-thaw method as described previously, followed by extrusion through […] double-stacked nuclepore filters using an Mini-Extruder (Avanti Polar Lipids, Inc.)[11][27].
as §4

[8] = test system: PC/SM/PE/PS/Chol (4.35:4.35:1:0.3:1 w/w) LUVs; test: Single-molecule force spectroscopy (AFM); format: binding; conditions: RMS ± SD; N-terminal Cys peptide on AFM tip via PEG linker; cancer cell model membrane
Description: as §2, §5, §4

[9] = Circular dichroism (CD) analysis; format: physicochemical; conditions: for α-Helix (%) 50% TFE / α-Helix (%) Benign: relative to molar ellipticity of A12L/A20L in 50% TFE; for [θ]222 Benign / [θ]222 50% TFE: CD, 25 °C; for [θ]222 Benign: benign buffer pH 7.0, 100 mM KCl, 50 mM KH2PO4/K2HPO4; for [θ]222 50% TFE: benign buffer:TFE 1:1 vol/vol; for α-Helix (%) Benign: benign buffer
Procedure: The secondary structures of the peptides were determined using a Jasco J-810 CD spectrometer (Jasco, Easton, MD) at 25 °C [12]. The benign buffer (pH 7.0, 100 mM KCl, 50 mM KH2PO4/K2HPO4) was used to simulate the hydrophilic environment and 50% 2,2,2-trifluoroethanol (TFE) (benign buffer: TFE = 1: 1, vol/vol) was used to simulate the hydrophobic environment. The mean residue molar ellipticities at 222 nm, [θ]222 (degree·cm^2·dmol^−1), were used to calculate the relative helical contents of MAPs[24].
CD spectroscopy illustrated the secondary structure of peptide analogs under benign environment and 50% TFE to mimic the hydrophobic conditions of cell membranes. CD results are shown in Supplementary Table S2 and Fig. S1. […] The helical content (%) of peptides in two groups relative to the molar ellipticity value of the peptide A12L/A20L in 50% TFE. In addition, except the peptide of V13E, the relative helicity of the peptides are in the same order of V13L>V13A>V13S>V13K and A12L/A20L>A20L>L6A>L6A/L17A in the benign and hydrophobic environments and also in the same order with the peptide hydrophobicity.

[10] = test system: HeLa cells; test: Single-molecule force spectroscopy (AFM); format: binding, human; conditions: RMS ± SD; N-terminal Cys peptide on AFM tip via PEG linker
Description: as §2, §3

[11] = normal cells, MTT, 1-125 μM, triplicate, read-out: IC50 3T3-L1
[12] = MTT, 1-125 μM, triplicate, read-out: IC50 B16

Molecule	IC50 [1, 11]	IC50 [2, 12]	Unbinding force A. laidlawii [3]	Unbinding force 3T3-L1 [4]	Unbinding force Chicken erythrocyte [5]	Unbinding force PC/Chol [6]	Unbinding force PC/PG [7]	Unbinding force PC/SM/PE/PS/Chol [8]	α-Helix (%) 50% TFE [9]	[θ]222 Benign [9]	[θ]222 50% TFE [9]	α-Helix (%) Benign [9]	Unbinding force HeLa [10]	IC50 [1]	IC50 [2]	Interaction probability of the force signal ([5]; chicken erythrocyte membranes, out of about 1000 force cycles)
CC[C@H](C)[C@H](NC(=O)[C@H](C)NC(=O)[C@H](CCCCN)NC(=O)[C@H](CC(C)C)NC(=O)[C@H](C)NC(=O)[C@@H](NC(=O)[C@H](Cc1cnc[nH]1)NC(=O)[C@H](CC(C)C)NC(=O)[C@@H](NC(=O)[C@@H](NC(=O)[C@H](CCCCN)NC(=O)[C@H](CCCCN)NC(=O)[C@H](C)NC(=O)[C@H](CO)NC(=O)[C@H](CCCCN)NC(=O)[C@H](Cc1ccccc1)NC(=O)[C@@H](NC(=O)[C@H](CCCCN)NC(=O)[C@H](CC(C)C)NC(=O)[C@H](Cc1ccccc1)NC(=O)[C@H](CO)NC(=O)[C@H](CCCCN)NC(=O)[C@H](Cc1c[nH]c2ccccc12)NC(=O)[C@H](CCCCN)NC(C)=O)[C@@H](C)O)[C@@H](C)O)C(C)C)[C@@H](C)O)C(=O)N[C@@H](CO)C(=O)N[C@@H](CO)C(N)=O [Peptide V13K]	26.2 µM	11.9 µM	51 ± 18 pN	51 ± 15 pN	87 ± 39 pN	101 ± 37 pN	135 ± 36 pN	128 ± 51 pN	69.85%	−4236.54 degree·cm^2·dmol^−1	−30268.40 degree·cm^2·dmol^−1	9.77%	52 ± 20 pN			
Ac-KWKSFLKTFKSALKTVLHTALKAISS-NH2 [Peptide V13L]			27 ± 9 pN	30 ± 11 pN	76 ± 34 pN	98 ± 30 pN	127 ± 34 pN	124 ± 40 pN	90.73%	−10502.62 degree·cm^2·dmol^−1	−39315.30 degree·cm^2·dmol^−1	24.24%	31 ± 10 pN	6.55 µM	3.51 µM	about 18%
Ac-KWKSFLKTFKSAEKTVLHTALKAISS-NH2 [Peptide V13E]			55 ± 12 pN	51 ± 11 pN	59 ± 35 pN	89 ± 34 pN	111 ± 37 pN	92 ± 34 pN	43.13%	−3876.86 degree·cm^2·dmol^−1	−18689.59 degree·cm^2·dmol^−1	8.95%	36 ± 14 pN	> 125 µM	120 µM	
Ac-KWKSFAKTFKSAKKTVAHTALKAISS-NH2 [L6A/L17A]	> 125 µM	> 125 µM	41 ± 15 pN	39 ± 12 pN	78 ± 39 pN	100 ± 34 pN	132 ± 41 pN	130 ± 36 pN	65.58%	−3589.82 degree·cm^2·dmol^−1	−28421.80 degree·cm^2·dmol^−1	8.28%	39 ± 11 pN			
